Results from EP0696280B1, “SUBSTITUTED PYRROLIDIN-3-YL-ALKYL-PIPERIDINES USEFUL AS TACHYKININ ANTAGONISTS” (MERRELL PHARMACEUTICALS INC., priority 1993, dated 1994).
Structures can show the parent of a compound that is named as a salt. Where two headings read alike, the source gives them in different places.

Assays:
[1] = target: T1, human jejunal NK2 receptor (Homo sapiens, UniProt P21452); assay: Antagonism of iodinated tachykinin binding to NK2 receptor (125iodohistidyl-1-neurokinin A, HSKR-1 cell membranes)
T1 construct: expressed in transfected cells; host or cells: HSKR-1 cells (mouse 3T3 fibroblasts)
T1 sequence (P21452 1-398): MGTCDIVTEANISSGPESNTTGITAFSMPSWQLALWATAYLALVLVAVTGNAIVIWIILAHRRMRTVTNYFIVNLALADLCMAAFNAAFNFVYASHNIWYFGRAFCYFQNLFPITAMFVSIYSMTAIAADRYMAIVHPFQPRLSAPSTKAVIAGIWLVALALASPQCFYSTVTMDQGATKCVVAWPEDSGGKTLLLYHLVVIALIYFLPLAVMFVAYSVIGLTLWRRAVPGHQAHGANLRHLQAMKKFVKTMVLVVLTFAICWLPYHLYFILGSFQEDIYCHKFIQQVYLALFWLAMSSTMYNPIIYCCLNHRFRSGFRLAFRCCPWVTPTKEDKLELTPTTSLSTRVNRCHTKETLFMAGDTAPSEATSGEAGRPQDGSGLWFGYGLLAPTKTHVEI
Experimental: The NK1 receptor affinity of proposed tachykinin antagonists was devaluated in guinea pig lungs (Keystone Biologicals, Cleveland, OH), affinity for the NK2 receptor evaluated in HSKR-1 cells (which are mouse 3T3 fibroblasts expressing the human jejunal NK2 receptor) and NK-3 receptor affinity was evaluated in freshly collected guinea pig cerebral cortex. Tissues or cells were homogenized with a Polytron in 15 volumes of 50 mM Tris-HCl buffer (pH 7.4, 4°C) and centrifuged. The pellet was resuspended in Tris-HCl buffer and was centrifuged; the pellet was washed twice by resuspension. The final pellet was resuspended at a concentration of 40 mg/ml for tissues (guinea pig lung and cerebral cortex) and 20 mg/ml for cells in incubation buffer and remained at room temperature for at least 15 min prior to use. Receptor binding was initiated by addition of 250 µl membrane preparation in duplicate to 0.1 nM of the following radioligands: ^125I-Bolton Hunter Lys-3 labeled substance P; ^125iodohistidyl-1-neurokinin A; and ^125I-Bolton Hunter labeled Lys-4 eledoisin in a final volume of 500 µl of buffer containing 50 mM Tris-HCl (pH 7.4 at room temperature), 0.1% bovine serum albumin, 2 mM MnCl2, 40 µg/ml bacitracin, 4 µg/ml leupeptin and chymostatin, 1 µM thiorphan and various doses of the putative tachykinin antagonists. Incubations were performed at room temperature for 90 min (NK1 receptor assays) or 2 hr (NK2 and NK3 receptor assays); binding was terminated by addition of 50 mM Tris-HCl buffer (pH 7.4, 4°C) and filtration under vacuum through GF/B filters presoaked with 0.1% polyethyleneimine (NK1 receptor assays) or 0.5% bovine serum albumin (NK2 and NK3 receptor assays). Filter bound radioactivity was quantitated in a gamma counter. Nonspecific binding was defined as binding in the presence of 1 µM substance P, neurokinin A, or eledoisin. Specific binding was calculated by subtracting nonspecific binding from total binding. Competition of iodinated SP, NKA, or eledoisin binding by test compounds or standards was expressed as a percentage of this maximum competition. IC50 values (concentration required to inhibit 50% of receptor binding) were generated for each of the test compounds by nonlinear regression using an iterative curve fitting program (GraphPAD Inplot, San Diego, CA).

NK2 receptor = target: T2, NK2 receptor (Bos taurus, UniProt P05363); assay: Antagonism of NK2 receptor mediated (NKA-induced) phosphatidylinositol turnover in SKLKB82#3 cells; assay type: cell-based
T2 construct: expressed in transfected cells; host or cells: SKLKB82#3 cells
T2 sequence (P05363 1-384): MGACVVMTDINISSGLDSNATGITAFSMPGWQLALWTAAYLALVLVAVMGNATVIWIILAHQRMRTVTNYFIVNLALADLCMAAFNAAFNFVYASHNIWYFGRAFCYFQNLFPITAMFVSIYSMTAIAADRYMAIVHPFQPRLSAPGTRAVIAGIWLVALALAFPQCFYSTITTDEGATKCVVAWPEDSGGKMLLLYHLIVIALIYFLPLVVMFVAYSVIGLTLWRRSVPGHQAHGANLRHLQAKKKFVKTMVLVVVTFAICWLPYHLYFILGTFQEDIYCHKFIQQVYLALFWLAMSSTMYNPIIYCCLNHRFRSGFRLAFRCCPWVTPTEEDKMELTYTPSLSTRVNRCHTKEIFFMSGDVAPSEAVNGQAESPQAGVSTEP
Experimental: Tachykinin-mediated inositol phosphate accumulation was measured in UCll or SKLKB82#3 cells in the presence and absence of NK1 or NK2 receptor antagonists, respectively. Tissues were incubated in Krebs-Henseleit buffer at 37°C with 95% O2-5% CO2 gassing. Tissues were then incubated with fresh buffer containing 100 µCi of myo-[2-^3H(N)] inositol at 37°C for 60 min with gentle gassing. After washing twice at room temperature in 5 ml buffer containing 10 mM LiCl, tissues were incubated for 30 min at room temperature with a buffer change at 15 min. Buffer was removed and Krebs-Henseleit buffer (containing 40 µg/ml bacitracin, 4 µg/ml each of leupeptin and chymostatin, 0.1% bovine serum albumin and 10 mM each of thiorphan and LiCl) added. After 15 min, SP was added to UCll cells or NKA to SKLKB82#3 cells at various concentrations to start the reaction. After incubation for 60 min at room temperature the reaction was terminated by addition of 930 µl chloroform: methanol (1:2 by volume) to each tube, followed by 310 µl chloroform and 310 µl doubly distilled water. Samples were vortexed, centrifuged, and 0.9 ml of the aqueous (top) phase removed and added to 2 ml ddH2O. The mixture was vortexed and loaded onto a 50% Bio-Rad AG 1-X8 (formate form, 100-200 mesh) exchange column (Bio-Rad Laboratories, Hercules, CA). The columns were washed, in order, with: 1) 10 ml doubly distilled water, 2) 5 ml of 5 mM disodium tetraborate/60 mM sodium formate, and 3) 5 ml of 1 M ammonium formate/0.1 M formic acid. The third elution was collected and 1 ml counted in 7 ml scintillation fluid. A 50 µl aliquot of the organic (bottom) phase was removed, dried in a scintillation vial and counted in 7 ml scintillation fluid.
The ratio of DPM in the aqueous phase aliquot (total inositol phosphates) to the DPM in the 50 µl organic phase aliquot (total [^3H]inositol incorporated) was calculated for each sample. Data are expressed as a percent of agonist-induced accumulation of [^3H]-inositol phosphates over basal levels. The ratios in the presence of test compound and/or standards were compared to the ratios for control samples (i.e. no stimulating agonist). Dose-response graphs were constructed and the abilities of the test compounds to inhibit tachykinin-induced phosphatidylinositol turnover determined with the aid of a computer program. […] Data is expressed as percent stimulation of total inositol phosphate accumulation over basal levels and normalized to the maximum response produced by SP. […] Schild analysis is performed using dose response curves (such as those presented in Figures 1a and 1b) to obtain a value indicative of the strength of a competitive antagonist and is expressed as the pA2, which is the negative logarithm of the molar concentration of antagonist which reduces the effect of a dose of agonist to one-half of that expected at the dose of agonist. […]
Values are mean (95% confidence limits) derived from Schild analysis of 2-3 experiments per compound per receptor.

[2] = Schild analysis, NKA in SKLKB82#3 cells, mean (95% confidence limits), 2-3 experiments

Row | Compound | IC50 [1] | Kb (NK2 receptor) | NK-2 RECEPTOR -SLOPE (NK2 receptor; [2]) | IC50 ([1]; HSKR-1 cells (mouse 3T3 fibroblasts expressing human jejunal NK2 receptor), mean of several experiments, read-out: NK-2 IC50) | Kb (NK2 receptor; Schild analysis, NKA in SKLKB82#3 cells, mean (95% confidence limits), 2-3 experiments, read-out: NK-2 RECEPTOR pA2 (converted)) | affinity for NK2 receptors ([1]; result in words) | antagonism of the receptor mediated NKA induced PI turnover (NK2 receptor; SKLKB82#3 cells, Figure 1b, result in words)
1 | COc1cc(C(=O)N2CCC(CCN3CCC(C(N)=O)(c4ccccc4)CC3)(c3ccc(Cl)c(Cl)c3)C2)cc(OC)c1OC (racemic) [Example 3A, 1-[2-[3-(3,4-dichloro-phenyl-3-yl)-1-(3,4,5-trimethoxy-benzoyl)-pyrrolidin-3-yl]-ethyl] -4-phenyl-piperidine-4-carboxylic acid amide hydrochloride] | 21 nM | 1.78 nM | 0.73 (0.49-0.97) |  |  |  | 
2 | COc1cccc(OC)c1C(=O)N1CCC(CCN2CCC(C(N)=O)(c3ccccc3)CC2)(c2ccc(Cl)c(Cl)c2)C1 (racemic) [Example 5A, 1-[2-[3-(3,4-dichloro-phenyl-3-yl)-1-(2,6-dimethoxy-benzoyl)-pyrrolidin-3-yl]-ethyl]-4-phenyl-piperidine-4-carboxylic acid amide hydrochloride] |  |  | 1.11 (0.99-1.23) | 40 nM | 44.7 nM |  | 
3 | COc1cc(C(=O)N2CCC(CCN3CCC(C(N)=O)(c4ccccc4)CC3)(c3ccc(Cl)c(Cl)c3)C2)cc(OC)c1OC (stereo not drawn) [Example 3, 1-[2-[3-(3,4-dichloro-phenyl)-1-(3,4,5-trimethoxy-benzoyl)-pyrrolidin-3-yl]-ethyl]-4-phenyl-piperidine-4-carboxylic acid amide] | 15 nM |  |  |  |  | high affinity | dose related antagonism
